Assay results published in US4837342A, “Prostacyclin analogue, and blood circulation improving agent and anti-ulcer composition containing it as active ingredient” (Sagami Chemical Research Center, priority 1986, dated 1989).

How the values were obtained:
[1] = background; cited from earlier work
diastolic blood pressure = experiment: Hypotensive activity, anesthetized dog; assay type: in vivo, crossbred adult dog; settings: for Hypotensive activity, blood pressure decrease: at 10 μg/kg i.v.; for Activity ratio, hypotensive activity: relative to prostacyclin = 1
Description: A male or female crossbred adult dog having a weight of from 9 to 14 kg was anesthetized by intraveous administration of sodium Pentobarbital. Then, the left carotid was exposed under artificial respiration, and the blood pressure was measured by using an electric blood pressure meter. […]

vertebral artery = experiment: Blood flow-increasing activity in the vertebral artery, anesthetized dog; assay type: in vivo, crossbred adult dog; settings: for ED50: Canis lupus familiaris, dog, near arterial injection, papaverine hydrochloride 100 μg/kg = 100%; for Activity ratio, blood flow-increasing activity in vertebral artery: relative to prostacyclin = 1
Excerpt: Blood flow-increasing activity in the vertebral artery
A made or female crossbred adult dog having a weight of from 8 to 13 kg was anesthetized by intravenous administration of sodium Pentobarbital and subjected to thoractomy along the mediam line under artificial respiration to expose the left vertebral artery. Under sodium peparin treatment, a polyethylene cannula was inserted into the vertebral artery, and a blood flow-measuring probe was attached to its other end, to which a blood circulation tube led from the left femoral artery was connected, whereby the blood flow in the vertebral artery was measured by using an electromagnetic flow meter. The test compound was injected into the vertebral artery by near arterial injection, and the blood flow-increasingactivity in the vertebral artery was represented by ED50 (i.e. the dose of a test compound at which the blood flow increases by 50%, as evaluated on the basis that the blood flow increase (representing substantially the maximum reaction) by the administration of 100 μg/kg papaverine hydrochloride into the vertebral artery, is evaluated to be 100%).

coronary artery = experiment: Blood flow-increasing activity in the coronary artery, anesthetized dog; assay type: in vivo, crossbred adult dog; settings: for ED50: Canis lupus familiaris, dog, near arterial injection, reactive hyperemia = 100%; for Activity ratio, blood flow-increasing activity in coronary artery: relative to prostacyclin = 1
Description: Blood flow-increasing activity in the coronary artery
A crossbred adult dog having a weight of from 9 to 15 kg was anesthetized with sodium Pentobarbital and subjected to thoractomy under artificial respiration. After pericardiectomy, the frontal descending branch of the left coronary artery was separated from the surrounding tissues, and a blood flow-measuring probe was attached thereto under sodium heparin treatment. The coronary blood flow was measured by using an electromagnetic flow meter. The test compound was injected into the coronary artery by near arterial injection, and the blood flow-increasing activity in the coronay artery was represented by ED50 (i.e. the dose of a test compound at which the blood flow increases by 50%, as evaluated on the basis that the blood flow increase by the reactive hyperemia caused by releasing the blood flow of the coronary artery after blocking it for 15 seconds, is evaluated to be 100%).

femoral artery = experiment: Blood flow-increasing activity in the femoral artery, anesthetized dog; assay type: in vivo, crossbred adult dog; settings: for ED50: Canis lupus familiaris, dog, near arterial injection, papaverine hydrochloride 100 μg/kg = 100%; for Activity ratio, blood flow-increasing activity in femoral artery: relative to prostacyclin = 1
Description: Blood flow-increasing activity in the femoral artery
A male or female crossbred adult dog having a weight of from 8 to 13 kg, was anesthetized by intravenous administration of sodium Pentobarbital. Then, a tracheal cannula was inserted, and artificial respiration was conducted. The blood flow in the femoral artery was measured by inserting the annula into the left femoral artery under sodium heparin treatment and providing a blood flow measuring probe at it other end, and by using an electromagnetic flow meter. The test compound was injected into the femoral artery by near arterial injection, and the blood flow-increasing activity in the femoral artery was represented by ED50 (i.e. the dose of a test compound at which the blood flow increases by 50%, as evaluated on the bais that the blood flow increase (representing substantially the maximum reaction) by the administration of 100 μg/kg of papaveline hydrochloride into the femoral artery, is evaluted to be 100%).

ulcer = experiment: Anti-ulcer activity (general statement); assay type: in vivo, animals; settings: compared with typical PG such as PGE2
Excerpt: On the basis of this discovery, a further research has been made for the application to the prevention and treatment of digestive organ ulcers, and have accomplished the present invention.

[2] = test system: Blood platelet (Collagen agglutination); experiment: Blood platelet agglutination inhibiting activity (collagen-induced), washed rabbit platelet suspension; assay type: cell-based, rabbit (Japanese white male rabbits); settings: for Activity ratio, platelet agglutination inhibiting activity, Collagen agglutination: relative to prostacyclin = 1
Description: (§1) Blood platelet aggutination inhibiting activity
(§2) Japanese white male rabbits having a weight of from 2.0 to 2.5 kg were used.
(§3) Under anesthesia with sodium Pentobarbital, blood was sampled from the carotid artery, and mixed with a 1/7 volume of an anticoagulant citric acid dextrose solution. Then, the mixture was subjected to centrifugal separation at 140×g for 15 minutes, whereupon the supernatant (platelet rich plasma:PRP) was obtained. PRP was subjected to centrifugal separation at 1,300×g for 7 minutes. The blood platelet pellets thus obtained were washed with a HEPES buffer solution (pH 6.5) for washing blood platelets, and subjected to centrifugal separation at 1,300×g for 7 minutes. The blood platelet pellets washed twice under such condition, were suspended in a suspending liquid (a buffer solution for washing blood platelets, which contains 0.1% of human fibrinogen, 1.8 mM of CaCl2 and 1.2 mM of MgCl2) to obtain a blood platelet suspension having a concentration of from 5×10^8 to 8×10^8 platelets/ml.
(§4) The platelet agglutination ability was measured by means of an agglutination meter. To 380 μl of the platelet suspension, 10 μl of a test compound or a solvent as the control, was added. Three minutes later, 10 μl of a platelet agglutinating substance (10 μM of ADP or 1 μg/ml of collagen, as the final concentration) was added thereto to induce agglutination.
(§5) The blood platelet agglutination inhibiting activity of each test compound was represented by ED50 (i.e. the concentration of the test compound where the platelet agglutination is suppressed to 50%).

[3] = test system: Blood platelet (ADP agglutination); experiment: Blood platelet agglutination inhibiting activity (ADP-induced), washed rabbit platelet suspension; assay type: cell-based, rabbit (Japanese white male rabbits); settings: for IC50: Oryctolagus cuniculus, Platelet, ADP 10 μM, concentration suppressing agglutination to 50%, read-out: Platelet agglutination inhibiting activity ED50, ADP agglutination; for Activity ratio, platelet agglutination inhibiting activity, ADP agglutination: relative to prostacyclin = 1
Description: as §1, §2, §3, §4, §5

Hydrochloric acid ulcer = Hydrochloric acid ulcer inhibiting activity; assay type: in vivo, wister rats; settings: rat; oral administration of 30 μg/kg; 0.6N hydrochloric acid; read-out: Hydrochloric acid ulcer inhibiting activity, Inhibiting rate
Description: Hydrochloric acid ulcer inhibiting activity
Male wister […] having a weight of from 190 to 240 g were used. The rats were starved in the same manner as in Test Example 6, and the test compounds and PGE2 were, respectively, orally administered in an amount of 30 μg/kg, and 30 minutes later, 1 ml of 0.6N hydrochloric acid was orally administered. Thirty minutes after the hydrochloric acid administration, each rat was killed by cervical vertebral luxation. Then, the stomach was taken out and fixed, and the ulcer index was obtained, in the same manner as in Test Example 6. The hydrochloric acid ulcer inhibiting activity of a test compound was represented by the inhibiting percentage (i.e. the percentage of the ulcer index of the treated group to the ulcer index of the non-treated group). To the non-treated group, the solvent was administered.

Ethanol ulcer = Ethanol ulcer inhibiting activity; assay type: in vivo, Male wister rats; settings: rat; for ED50: po, P.O., 30 minutes before 99.5% ethanol
Description: Ethanol ulcer inhibiting activity
Male wister rats having a weight of from 170 to 270 g were put into individual cages and starved for 24 hours. During this starvation period, the rats were allowed to drink water freely. A test compound or PGE2 as a comparative compound was orally administered in an amount of 3, 10 or 30 μg/kg, and 30 minutes later, 1 ml of 99.5% ethanol was orally administered to each rat. One hour after the ethanol administration, each rat was filled by cervical vertebral luxation, and the stomach was taken out. A 1% formaline solution was injected into the stomach in an amount of about 8 ml, and the stomach was fixed in the formaline solution for 30 minutes. After the fixing, the stomach was severed along the greater curvature, and the mucous membrane surface of the stomach was gently washed with flowing water. Then, the total length of damages appearing on the gastric glandular portion was obtained and used as the ulcer index.
The ethanol ulcer inhibiting activity of a test compound was represented by ED50 (i.e. the dose of the test compound at which the ulcer was inhibited by 50% relative to the ulcer index of the non-treated group). To the non-treated group, the solvent was administered.

Indomethacine ulcer = Indomethacine ulcer inhibiting activity; assay type: in vivo, Male wister rats; settings: rat; oral administration of 60 μg/kg twice
Excerpt: Indomethacine ulcer inhibiting activity
Male wister rats having a weight of from 210 to 270 g were used. The rats were starved in the same manner as in Test Example 6. […] Three hours after the indomethacine administration, the test compound or PGE2 was again orally administered in the same amount. Six hours after the first administration of indomethacine, each rat was killed by cervical bertebral luxation. The stomach was taken out and fixed, and the ulcer index was obtained, in the same manner as in Test Example 6.
The indomethacine ulcer inhibiting activity of a test compound was represented by the inhibiting percentage (i.e. the inhibiting percentage of the ulcer index of the treated group to the ulcer index of the non-treated group). To the non-treated group, the solvent was administered.

## O=C(O)CCC/C=C1\C[C@H]2C[C@@H](O)[C@H](/C=C/[C@@H](O)C3CCCC3)[C@H]2C1 [OP-41483]
[1]
  Chemical stability (in words): chemically stable

## CCCCC[C@H](O)/C=C/[C@@H]1[C@H]2C=C(CCCCC(=O)O)C[C@H]2C[C@H]1O [9-(O)-methano-Δ^6 -PGI1]
[1]
  Chemical stability (in words): chemically stable

## CCC#CCC(C)[C@H](O)/C=C/[C@@H]1[C@H]2CCC(CCCCC(=O)O)=C[C@H]2C[C@H]1O (stereo partly drawn) [(f), 3-(4-carboxybutyl)-7-exo-(3α-hydroxy-4,8-dimethyl-trans-1-octen-6-ynyl)-8-endo-hydroxy-cis-bicyclo[4,3,0]nona-2-ene]
Diastolic blood pressure; dog
  Hypotensive activity, blood pressure decrease: 33 mmHg
Diastolic blood pressure
  Activity ratio, hypotensive activity: 1/77
Vertebral artery
  ED50: 0.57 µg/kg
  Activity ratio, blood flow-increasing activity in vertebral artery: 1/13
Coronary artery
  ED50: 1.75 µg/kg
  Activity ratio, blood flow-increasing activity in coronary artery: 1/269
Femoral artery
  ED50: 0.56 µg/kg
  Activity ratio, blood flow-increasing activity in femoral artery: 1/23
ulcer
  Anti-ulcer activity (in words): comparable or superior to typical PG having anti-ulcer activities, such as PGE2
[2]
  Activity ratio, platelet agglutination inhibiting activity, Collagen agglutination: 1/8
[3]
  IC50: 23 nM
  Activity ratio, platelet agglutination inhibiting activity, ADP agglutination: 1/8
Hydrochloric acid ulcer
  inhibition in vivo at 0.03 mg/kg: 20.5%
Ethanol ulcer
  ED50: 2.92 µg/kg
Indomethacine ulcer
  Indomethacine ulcer inhibiting activity, Inhibiting rate: 38.8%

## CCC#CCC(C)[C@H](O)/C=C/[C@@H]1[C@H]2CCC(C=CCCC(=O)O)=C[C@H]2C[C@H]1O (stereo partly drawn) [(d), 3-(4-carboxy-1-butenyl)-7-exo-(3α-hydroxy-4,8-dimethyl-trans-1-octen-6-ynyl)-8-endo-hydroxy-cis-bicyclo[4,3,0]nona-2-ene]
Diastolic blood pressure; Canis lupus familiaris, iv, dog, femoral vein, Table 1, read-out: Hypotensive activity ED50 (dose reducing diastolic blood pressure by 50 mmHg)
  ED (50 mmHg): 8.7 µg/kg
Diastolic blood pressure
  Activity ratio, hypotensive activity: 1/36
Vertebral artery
  ED50: 1.9 µg/kg
  Activity ratio, blood flow-increasing activity in vertebral artery: 1/43
Coronary artery
  ED50: 0.38 µg/kg
  Activity ratio, blood flow-increasing activity in coronary artery: 1/38
Femoral artery
  ED50: 0.9 µg/kg
  Activity ratio, blood flow-increasing activity in femoral artery: 1/38
ulcer
  Anti-ulcer activity (in words): comparable or superior to typical PG having anti-ulcer activities, such as PGE2
[3]
  IC50: 8.7 nM
  Activity ratio, platelet agglutination inhibiting activity, ADP agglutination: 1/3
Hydrochloric acid ulcer
  inhibition in vivo at 0.03 mg/kg: 24.1%
Ethanol ulcer
  ED50: 2.55 µg/kg
Indomethacine ulcer
  Indomethacine ulcer inhibiting activity, Inhibiting rate: 73.5%

## CCCCC[C@H](O)/C=C/[C@@H]1[C@H]2CC(CCCCC(=O)O)=C[C@H]2C[C@H]1O [isocarbacyclin, 9(O)-methano-Δ^6(9α) -PGI1]
[1]
  Chemical stability (in words): adequately chemically stable

## CCCCC[C@H](O)/C=C/[C@@H]1[C@H]2CCC(CCCCC(=O)O)=C[C@H]2C[C@H]1O [(e), 3-(4-carboxybutyl)-7-exo-(3α-hydroxy-trans-1-octenyl)-8-enodo-hydroxy-cis-bicyclo[4,3,0]nona-2-ene]
Diastolic blood pressure; dog
  Hypotensive activity, blood pressure decrease: 17.9 mmHg
Diastolic blood pressure
  Activity ratio, hypotensive activity: 1/213
Vertebral artery
  ED50: 2.5 µg/kg
  Activity ratio, blood flow-increasing activity in vertebral artery: 1/57
Coronary artery
  ED50: 3.8 µg/kg
  Activity ratio, blood flow-increasing activity in coronary artery: 1/380
Femoral artery
  ED50: 0.46 µg/kg
  Activity ratio, blood flow-increasing activity in femoral artery: 1/19
[2]; Oryctolagus cuniculus, Platelet, collagen 1 μg/ml, concentration suppressing agglutination to 50%, read-out: Platelet agglutination inhibiting activity ED50, Collagen agglutination
  IC50: 280 nM
[2]
  Activity ratio, platelet agglutination inhibiting activity, Collagen agglutination: 1/82
[3]
  IC50: 290 nM
  Activity ratio, platelet agglutination inhibiting activity, ADP agglutination: 1/100
Hydrochloric acid ulcer
  inhibition in vivo at 0.03 mg/kg: 18.3%
Ethanol ulcer; oral administration of 30 μg/kg
  Ethanol ulcer inhibition: 28.5%
Indomethacine ulcer
  Indomethacine ulcer inhibition (in words): Certain inhibition
